# Assay results from patent US11672758B2, “Endoxifen methods and compositions for inhibition of protein kinase C” (Jina Pharmaceuticals, Inc., priority 2006, dated 2023).
# Where “and” joins values, the source holds several entries; their conditions need not be identical. Equal entries are not always repeated. Where two headings read alike, the source gives them in different places.
# Key:
# [1] = tested on: patients; settings: patients on raloxifene for osteoporosis; cited from earlier work
# [2] = tested on: Parkinsonian monkeys; settings: co-administered with levodopa to Parkinsonian monkeys; cited from earlier work
# [3] = Comparative pharmacokinetic study in rats; format: in vivo; settings: oral 10 mg/kg endoxifen versus 10 mg/kg tamoxifen
# [4] = tested on: PKC; assay: PKC kinase activity assay kit (Assay Designs); format: biochemical; settings: for percentage PKC inhibition: PKC 10 ng/well
# Protocol: A PKC kinase activity assay kit (Assay Designs, Ann Arbor, Mich.) was used to test endoxifen PKC inhibitory activity 0.025, 0.05, 0.1, or 0.2 mM endoxifen was used in a reaction mix containing PKC 10 ng/well.
# [5] = cited from earlier work
# [6] = tested on: male Balb/c mice; assay: Toxicity testing, intravenous single and repeat dose in mice; format: in vivo
# Protocol: Endoxifen was formulated according to Example 6 and was tested for toxicity in male Balb/c mice. A single test dose at 100 mg/kg or 50 mg/kg was intravenously administered to mice. […] The mice also survived in the control group with a vehicle control that lacked endoxifen. Repeat dose toxicity study was conducted with a dose of 25 mg/kg administered consecutively for 3 days with accumulated dose of 75 mg/kg. […] The results are reported in the table below as the number of mice surviving per total.
molecule,measurement,setting,value
O=C(c1ccc(OCCN2CCCCC2)cc1)c1c(-c2ccc(O)cc2)sc2cc(O)ccc12 [raloxifene],reduction in risk of mild cognitive impairment,[1],33%
"CC/C(=C(\c1ccccc1)c1ccc(OCCN(C)C)cc1)c1ccccc1 [tamoxifen, reference compound]",attenuation of levodopa-induced dyskinesias,[2],61%
"CC/C(=C(\c1ccc(O)cc1)c1ccc(OCCNC)cc1)c1ccccc1 [Endoxifen, 4-hydroxy N-desmethyl tamoxifen]",endoxifen plasma concentration compared to that after same dose of tamoxifen,[3],10 fold
same,percentage PKC inhibition,[4]; 0.2 mM,80%
same,percentage PKC inhibition,[4]; […],12%
same,potency as PKC inhibitor relative to tamoxifen,[4]; endoxifen versus tamoxifen,at least four fold more potent
same,concentration in the human plasma,[5]; patients treated with tamoxifen,12.4 ng/mL
same,Survival/Total,"[6]; repeat dose 25 mg/kg consecutively for 3 days, accumulated dose 75 mg/kg",4/4
same,loss of body weight,[6]; single dose 50 mg/kg intravenous,no significant loss of body weight
same,Survival/Total,"[6]; single dose 50 mg/kg intravenous, formulated according to Example 6, 50 mg/kg",all animals survived and 4/4
same,Survival/Total,"[6]; single dose 100 mg/kg intravenous, formulated according to Example 6, 100 mg/kg",All the mice died and 0/2
"4-hydroxy tamoxifen [4-OH-tamoxifen, reference compound]",concentration in the human plasma,"[5]; human, in vivo",1 ng/mL
